Reference: patent US20150018384A1, “TREATMENT FOR HIGH CHOLESTEROL” (FibroGen, Inc., priority 2012, published 2015)
“Also recorded” adds a separate entry of the source. Marks after values point to notes of the source that are not given here.

Assays:
cynomolgus monkeys = test: Cholesterol levels after repeated oral administration in monkey toxicity studies; format: in vivo, cynomolgus monkey
Protocol: During these studies monkeys were fasted prior to each blood collection. Plasma samples were then evaluated at pre-dose and at different time-points for levels of total cholesterol.

[1] = tested on: subjects with end-stage renal disease (ESRD) receiving maintenance hemodialysis; test: Study 2: phase 2 study of compound A vs EPO in ESRD subjects on maintenance hemodialysis; format: in vivo, human
Source text: A total of n=20 subjects were selected and assayed for the complete lipid panel as described above. Subjects on this study protocol were not required to fast nor have any diet restrictions.

ApoE deficient mice = test: Cholesterol reduction and erythrogenesis in ApoE deficient mice, 4 weeks; format: in vivo, mouse; details: orally 2, 20, 60 or 100 mg/kg three times a week for 4 weeks, n=8/group
Protocol: Ten-week-old male apoE knockout mice (Jackson Laboratories, Bar Harbor, Me.) were fed a normal chow diet (0.02% cholesterol, 13.5% fat by weight; LabDiet). […] After 2 weeks of acclimatization, whole blood was collected for baseline measurement before administration of test reagents. […] The animals were sacrificed at end of study.
Total cholesterol and hemoglobin were measured weekly.

[2] = tested on: subjects with end stage renal disease (ESRD); test: ESRD subjects switched from epoetin alfa to Compound A or continued on epoetin alfa; format: in vivo, human; details: six weeks
Protocol: Mean total cholesterol change for the Compound A-treated subjects (all cohorts) was a decrease of 15 mg/dL compared to an increase of 18 mg/dL for the epoetin alfa treated subjects.

[3] = tested on: non-dialysis chronic kidney disease (CKD) patients with anemia; test: Study 1: Phase 2 study of compound A in non-dialysis CKD patients with anemia; format: in vivo, human
Protocol: The primary objectives of this study were to evaluate the efficacy and safety of the compound in the correction of anemia (i.e. increasing hemoglobin levels) in non-dialysis CKD patients. The study included six dosing cohorts of approximately 24 subjects each. […] Cohort A and cohort B both received a weight-adjusted dose of approximately 1 mg/kg, three times a week for 16 weeks; the dosing in cohort B was reduced to twice a week once anemia was corrected. Cohort C and cohort D received a fixed dose of 50 mg or 100 mg, respectively, three times a week, for 24 weeks. Cohort E received a weight-adjusted dose of approximately 1 mg/kg twice a week, reduced to once a week once anemia was corrected. Cohort F received a fixed dose of 70 mg, three times a week.
Total cholesterol and lipid panels were measured by standard procedures.
Total cholesterol was measured from all subjects in Study 1 or Study 2 as part of the chemistry panel at prespecified time points. […] Total cholesterol decreased initially with treatment, reached a plateau where it remained during treatment, and then returned to baseline after treatment ends.
Frozen serum samples, collected from subjects in Study 1 or Study 2, were selected for the lipid panel analysis based on the following criteria: 1) with matched baseline (D1W1) and; 2) at least one other time point. The complete lipid panel includes: total cholesterol (TC), HDL, LDL-measured, Triglycerides and VLDL (Calculated). Ratio of HDL/LDL or LDL/HDL were analyzed.
A total of n=9 subjects samples were selected and assayed for the complete lipid panel as described above. Subjects on this study protocol were not required to fast nor have any diet restrictions.

[4] = tested on: subjects with end stage renal disease (ESRD); test: ESRD subjects switched from epoetin alfa to Compound A or continued on epoetin alfa; format: in vivo, human
healthy subjects = test: Circulating total cholesterol and LDL-C in healthy subjects dosed twice per week; format: in vivo, human; details: 1.88 mg/Kg orally twice per week, average (SD), n=6
Protocol: Subjects were fasted overnight prior on subsequent dosing days. Overnight fasting was not required on non-dosing days. The samples had been stored frozen at −70° C. for up to 6 years, and had undergone up to two thaw/freeze cycles prior to testing. Results are presented separately for samples collected during fasting: Day 1 (0, 1, 2 hrs post-dose), Day 2 (24 hrs), Day 3 (72 hrs), Day 7 (168 hrs), Day 10 (240 hrs) and Day 17 (408 hours).
Samples were analyzed using validated assays on a Roche Modular system. Total cholesterol was measured using the CHOD-PAP reagent from Roche, Cat. No. 11875540216. HDL cholesterol was measured using reagents from Polymedco, Cat. No. 9400 (data not shown). LDL cholesterol was measured using the LDL-C plus 2nd generation reagents from Roche, Cat. No. 04711220190. Triglycerides were measured using GPO-PAP reagent from Roche, Cat. No. 11730711216 (data not shown).

[5] = BL total cholesterol >200 mg/dL, visit D1W1 (baseline)
[6] = BL total cholesterol >200 mg/dL, visit W9
[7] = BL total cholesterol ≦200 mg/dL, visit D1W1 (baseline)
[8] = BL total cholesterol ≦200 mg/dL, visit W9
[9] = n=20, 9 weeks vs baseline, FIG. 8A
[10] = six subjects with identical time points, FIG. 7
[11] = baseline, Compound A 3 cohorts n=74, Epoetin alfa n=22

Compound: Cc1nc(C(=O)NCC(=O)O)c(O)c2ccc(Oc3ccccc3)cc12 [Compound A, [(4-Hydroxy-1-methyl-7-phenoxy-isoquinoline-3-carbonyl)-amino]-acetic acid]
- total cholesterol levels (cynomolgus monkeys; 22-week study, intermittent oral dosing 1, 10, 30 and 40 mg/kg, day 28 to day 152): dose-dependent decrease in cholesterol levels
- total cholesterol levels (cynomolgus monkeys; 22-week study, intermittent oral dosing 1, 10, 30 and 40 mg/kg, day 28 to day 152, listed as compound A): dose dependent decrease in total cholesterol
- total cholesterol levels (cynomolgus monkeys; 28-Day study, daily oral dosing 1, 10 and 30 mg/kg, day 28): dose-dependent decrease in cholesterol levels
- total cholesterol levels (cynomolgus monkeys; 28-Day study, daily oral dosing 1, 10 and 30 mg/kg, day 28, listed as compound A): dose dependent decrease in total cholesterol
- cholesterol (cynomolgus monkeys; additional monkey study, up to one year): decreases in cholesterol were observed and maintained for up to one year
- reduction in total cholesterol by baseline total cholesterol ≦200 or >200 mg/dL ([1]; 19-week study, FIGS. 6A and B): appears to be larger for the subjects with higher cholesterol at BL
- LDL [1, 5]: 203.40
- LDL change from BL [1, 5]: 0.00
- TC [1, 5]: 275.80
- TC change from BL [1, 5]: 0.00
- LDL [1, 6]: 164.20
- LDL change from BL [1, 6]: −39.20
- TC [1, 6]: 239.20
- TC change from BL [1, 6]: −36.60
- LDL [1, 7]: 81.20
- LDL change from BL [1, 7]: 0.00
- TC [1, 7]: 157.90
- TC change from BL [1, 7]: 0.00
- LDL [1, 8]: 62.20
- LDL change from BL [1, 8]: −19.00
- TC [1, 8]: 128.20
- TC change from BL [1, 8]: −29.70
- hemoglobin levels ([1]; ESRD patients on dialysis, 0.8 to 3.0 mg/kg three times a week): effectively corrected hemoglobin levels
- total cholesterol, subjects with or without prior history of hyperlipidemia and/or hypercholesterolemia ([1]; Study 2 (6 weeks), FIG. 4): reduced the total cholesterol level of subjects in similar fashion
- HDL, lipid panel [1, 9]: slight decrease
- LDL, lipid panel [1, 9]: significant reduction
- VLDL, lipid panel [1, 9]: significant reduction
- total cholesterol, lipid panel [1, 9]: significant reduction
- triglycerides, lipid panel [1, 9]: significant reduction
- change in total cholesterol from baseline over time ([1]; treated for 19 weeks, FIG. 2): significant decrease in total cholesterol
- doses with statistically significant decreases in total cholesterol (% change) (ApoE deficient mice): 100 mg/kg
- hemoglobin compared to vehicle-treated (ApoE deficient mice): statistically significant increases in hemoglobin compared to vehicle-treated at the 60 mg/kg and 100 mg/kg doses; also recorded: significant increase in hemoglobin for the 60 mg/kg and 100 mg/kg doses
- total cholesterol (% change from baseline) compared to vehicle-treated (ApoE deficient mice): lower total cholesterol levels; also recorded: significant percent change in total cholesterol from baseline for the 100 mg/kg dose
- Total Cholesterol change ([2]; Mean (±SD), Compound A orally three times a week (n=74) or continued epoetin alfa (n=22)): −15 (38)** mg/dL
- Mean total cholesterol change, decrease ([2]; all cohorts): 15 mg/dL
- total cholesterol by baseline total cholesterol ≦200 or >200 mg/dL ([3]; Study 1, FIG. 5): total cholesterol is reduced in each group
- total cholesterol over time ([3]; all subjects from all cohorts (n=144), during study treatment, FIG. 1): significant decrease in total cholesterol
- LDL, lipid panel [3, 10]: reduce over the course of treatment
- total cholesterol, lipid panel [3, 10]: reduce over the course of treatment
- LDL cholesterol change ([4]; Mean (±SD), six weeks, Compound A orally three times a week (n=74) or continued epoetin alfa (n=22)): −25 (22)** mg/dL
- Mean change in LDL-C, decrease ([4]; all cohorts, six weeks): 25 mg/dL
- Mean BL LDL Cholesterol [4, 11]: 101.71 mg/dL
- Mean BL Total Cholesterol [4, 11]: 171.11 mg/dL
- mean total cholesterol over the course of treatment ([4]; both groups stratified by BL total cholesterol ≦200 or >200 mg/dL, FIG. 16): reduction
- mean LDL-C over the course of treatment ([4]; both groups stratified by BL total cholesterol ≦200 or >200 mg/dL, FIG. 17): reduction
- HDL-C ([4]; six weeks): showed a decrease
- LDL Cholesterol (healthy subjects; 0 hours): 95 (36) mg/dL
- Total Cholesterol (healthy subjects; 0 hours): 165 (33) mg/dL
- LDL Cholesterol (healthy subjects; 1 hours): 95 (36) mg/dL
- Total Cholesterol (healthy subjects; 1 hours): 164 (30) mg/dL
- LDL Cholesterol (healthy subjects; 2 hours): 97 (35) mg/dL
- Total Cholesterol (healthy subjects; 2 hours): 167 (32) mg/dL
- LDL Cholesterol (healthy subjects; 24 hours): 96 (36) mg/dL
- Total Cholesterol (healthy subjects; 24 hours): 161 (31) mg/dL
- LDL Cholesterol (healthy subjects; 72 hours): 92 (27) mg/dL
- Total Cholesterol (healthy subjects; 72 hours): 154 (26) mg/dL
- LDL Cholesterol (healthy subjects; 168 hours): 77 (31) mg/dL
- Total Cholesterol (healthy subjects; 168 hours): 144 (24) mg/dL
- LDL Cholesterol (healthy subjects; 240 hours): 78 (29) mg/dL
- Total Cholesterol (healthy subjects; 240 hours): 144 (23) mg/dL
- LDL Cholesterol (healthy subjects; 408 hours): 86 (29) mg/dL
- Total Cholesterol (healthy subjects; 408 hours): 152 (22) mg/dL
